Measured values from PubChem BioAssay (NCI).
Values joined by “and” are separate entries in the source; they are usually repeats but may differ in a detail not shown here. Equal values may be shown once.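 Exposure lasted 48 hours, with cells grown in 96-well plates and compounds tested at five concentrations. GI50 = concentration required for 50% inhibition of growth. At the TGI there is no net growth.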

Assays:
Assay in all cases: DTP human tumour cell line panel, 48 h
[1] = system: CCRF-CEM leukemia
[2] = system: HOP-62 NSCLC
[3] = system: HT29 colon
[4] = system: NCI-H460 lung
[5] = system: RXF 393 renal
[6] = system: SK-MEL-2 melanoma
[7] = system: TK-10 renal
[8] = system: U251 CNS
[9] = system: EKVX NSCLC

SMILES	TGI [1]	TGI [2]	TGI [3]	TGI [4]	TGI [5]	TGI [6]	TGI [7]	TGI [8]	GI50 [1]	GI50 [2]	GI50 [3]	GI50 [4]	GI50 [6]	GI50 [7]	GI50 [8]	TGI [9]	GI50 [5]
CC(=O)OCC1OC(OC(C)=O)C(NC#N)C(OC(C)=O)C1OC(C)=O (configuration not stated)	> 100 µM	> 100 µM	> 100 µM	> 100 µM	> 100 µM	> 100 µM	> 100 µM	> 100 µM									
COC(=O)C1=C(C)N(NC(=O)Nc2ccccc2)C2(N)N(NC(=O)Nc3ccccc3)C(C)=C(C(=O)OC)C12C(=O)OC (configuration not stated)	> 100 µM		> 100 µM	> 100 µM	> 100 µM	> 100 µM	> 100 µM	> 100 µM									
CN(C)C(=O)c1cc2cnc(Nc3ccc(N4CCNCC4)cn3)nc2n1C1CCCC1	> 100 µM	58.5 µM	> 100 µM	43.8 µM		30.1 µM	> 100 µM	49.8 µM	2.92 µM	2.09 µM	3.28 µM	11.3 µM	12.2 µM	4.37 µM	11.3 µM		
CCCCc1c2c(nc3c1CC/C(=C\c1ccccc1)C3=O)CCCC2	29.4 µM	16.5 µM	4.75 µM	17.7 µM	6.35 µM		21.1 µM	10.8 µM								24.9 µM	
CCCNc1ncnc2c1cnn2C	> 100 µM	> 100 µM	> 100 µM	> 100 µM		> 100 µM	> 100 µM	> 100 µM									
O=C(Nc1ccccc1)Oc1ccccc1C1CCCCC1	67.3 µM	59.6 µM	51.6 µM	60 µM	21.9 µM		> 100 µM	30.7 µM								85.4 µM	
CN(C)c1ccc(/C=C2\Cc3ccccc3C2=O)cc1Br	> 100 µM	> 100 µM	> 100 µM	> 100 µM		> 100 µM	> 100 µM	> 100 µM								> 100 µM	
Cn1ncc2c(c1=O)Nc1ccccc1S2(=O)=O	> 100 µM	> 100 µM	> 100 µM	> 100 µM		> 100 µM	> 100 µM	> 100 µM								> 100 µM	
CN1OC(CO)CC12C1CC3CC(C1)CC2C3 (configuration not stated)	> 100 µM	> 100 µM	> 100 µM	> 100 µM	> 100 µM	> 100 µM	> 100 µM	> 100 µM									
CC1=C2[C@@H](c3ccccc3)C3C=CC2(C=C3C(F)(F)F)N(C(=O)NC2CCCCC2)C1=O (some centres not stated)	> 100 µM	> 100 µM	> 100 µM	> 100 µM	> 100 µM		> 100 µM	> 100 µM								> 100 µM	
NC1=NN(c2ccccc2)C(=O)C1/C(=N\NC(=O)c1cc2ccccc2cc1O)C(=O)Nc1ccc(Cl)cc1 (configuration not stated)	24.4 µM	> 100 µM	> 100 µM	> 100 µM		> 100 µM	> 100 µM	> 100 µM								62.9 µM	
O=[N+]([O-])c1cccc(C2=NOC3CCCC23)c1 (configuration not stated)	> 100 µM	> 100 µM	> 100 µM	> 100 µM		> 100 µM	> 100 µM	> 100 µM								> 100 µM	
CCOC(=O)NC/C=C/CO	> 100 µM	> 100 µM		> 100 µM	> 100 µM	> 100 µM	> 100 µM	> 100 µM									
O=C(Nc1cccc(C(F)(F)F)c1)Nc1ccc(OCc2nnc(-c3ccccc3)o2)c(F)c1	54.9 µM	18 µM	58.5 µM	15.3 µM		25.8 µM	68.9 µM	19.6 µM	3.29 µM	3.4 µM	5.08 µM	3.61 µM	7.16 µM	20.5 µM	3.73 µM		
COC(=O)N/N=C(\c1nc2ccc(Cl)cc2[nH]c1=O)C(O)c1ccc([N+](=O)[O-])cc1 (configuration not stated)	> 100 µM	> 100 µM	> 100 µM	> 100 µM	> 100 µM			> 100 µM									
O=C(O)C12C3C4C1C1C2C3C41I (configuration not stated)	> 100 µM	> 100 µM	> 100 µM	> 100 µM		> 100 µM	> 100 µM	> 100 µM								> 100 µM	
CC1CC2C(=O)N(c3ccccc3)C(=O)C2c2[nH]c3ccccc3c21 (configuration not stated)	> 100 µM		> 100 µM	> 100 µM	> 100 µM		> 100 µM	> 100 µM								> 100 µM	
CCNC(=O)O/N=C1/C=C2CC[C@@H]3C(CC[C@@]4(C)C3CC[C@@H]4OC(=O)NCC)[C@@]2(C)CC1 (some centres not stated)		> 100 µM	10.3 µM	12.5 µM	5.3 µM	5.1 µM	8.8 µM	5.28 µM								16.2 µM	
Cc1c2cc[n+](C)cc2c(C)c2c1[nH]c1ccc(Oc3ccccc3)cc12	18.6 µM and 22.9 µM	38 µM and 26.3 µM	21.2 µM and 29 µM	14 µM and 11.4 µM	> 100 µM and 59.4 µM		> 71.2 µM and 30.2 µM	> 100 µM				1.64 µM and 1.06 µM		1.55 µM and 3.43 µM		> 100 µM and 51.7 µM	> 100 µM and 11 µM
O=C1COc2cc3c(cc2N1)SCC(=O)N3	> 100 µM	> 100 µM	> 100 µM			> 100 µM	> 100 µM									> 100 µM	
